1 molecule from publication PMC12706794, “Identification and Characterization of a Small-Molecule Inhibitor of the Pseudomonas aeruginosa SOS Response” (ACS Infectious Diseases, 2025) can be followed below.

The structures appear in SMILES notation.

One assay addresses T1, RecAPa (Pseudomonas aeruginosa, UniProt P08280).
T1 construct: made in house; host or cells: E. coli BL21(DE3)
As to the kind of experiment: Differential scanning fluorimetry (thermal shift) on RecAPa. The format is binding, P. aeruginosa. The settings on record: read-out: RecAPa ΔTm compared to the control. The protocol: To elucidate whether A12 binds RecAPa or LexAPa, the two proteins were submitted to a thermal shift assay by DSF, in the presence of different concentrations of A12 (30–1000 μM; Figure A–C). Controls devoid of A12 were included, as well.
Fluorescence of the SyproOrange dye was measured by a StepOne Real-Time PCR System (Applied Biosystems), while increasing the temperature from 25 to 95 °C (0.5 °C/min). Normalized fluorescence intensity curves were compared to observe macroscopic differences in the recorded melting profiles, while derivative curves were analyzed to find exact protein melting temperatures (T m, corresponding to derivative curve minimum). Melting curves were repeated twice, and duplicates were considered coherent if T m differences were lower than 1 °C.

In assay [1] the target is T2, LexAPa S125A / SOS-box dsDNA (Pseudomonas aeruginosa, UniProt P37452, S125A).
T2 construct: Concerning full-length LexAPa ^S125A, a biphasic melting curve was obtained for the pure protein; made in house; host or cells: E. coli BL21(DE3)
Briefly: EMSA of LexAPa S125A binding to SOS box dsDNA. The format is biochemical, P. aeruginosa. As to conditions: 60-fold molar excess of A12. The protocol:
LexAPa DNA-binding activity–which has to be preserved for an anti-SOS strategy to be effective–resides on the NTD but requires dimerization via the CTD. In this context, to rule out any interfering effect of A12 on LexAPa binding to SOS-box DNA, an EMSA was performed by incubating LexAPa with operator dsDNA sequences and different doses of A12, before analyzing the mixtures on native polyacrylamide gels.
An EMSA of the SOS-box dsDNA in the presence of full-length LexAPaS125A and different concentrations of the hit compound was performed to observe the potential interference effects of the selected drug on LexAPa binding to operator DNA sequences.
SOS-box dsDNA was produced by mixing equimolar amounts of AT-repeat_For and AT-repeat_Rev oligonucleotides (Supplementary, Table S1) in annealing buffer (10 mM Tris–HCl, 50 mM NaCl, 1 mM EDTA, pH 7.5), heating at 95 °C for 5 min, and then allowing the mixture to cool down to room temperature slowly overnight. The E. coli “AT-repeat” operator sequence was used as it is fully compatible with the P. aeruginosa SOS-box consensus (CTG-N2-T-N7-CAG).
1 μM SOS-box dsDNA was incubated either alone or with 8 μM 6His-LexAPa ^S125A in EMSA buffer (50 mM Tris–HCl, 750 mM KCl, 0.5 mM EDTA, pH 7.4). […]
Background: Mobility shift assays separate free from complexed probe on a gel.

The test system of assay [2] is P. aeruginosa PAO1 on THP-1-derived macrophages. As to the kind of experiment: P. aeruginosa PAO1 colonization of THP-1-derived macrophages. The format is cell-based. The procedure: THP-1-derived macrophages were generated from THP-1 monocytes as previously described, with minor modifications. , Briefly, THP-1 monocytes were washed three times with antibiotic-free RPMI 1640 medium and resuspended in complete antibiotic-free RPMI 1640 supplemented with 300 nM phorbol 12-myristate 13-acetate (PMA). Cells were incubated for 24 h, followed by a 48 h rest period in PMA-free RPMI 1640 prior to use in subsequent experiments. […] PMA-differentiated THP-1-derived macrophages were similarly trypsinized and seeded into 24-well plates at 5 × 10^5 cells/well in complete, antibiotic-free RPMI supplemented with FBS. Cells were incubated overnight to allow for attachment. Immediately prior to infection, the medium was aspirated, and cells were washed three times with Dulbecco’s phosphate-buffered saline. […] Infection was synchronized by centrifuging plates at 1000g for 1 min. […] Following the infection period, the medium was aspirated, and cells were washed three times with DPBS to remove unattached bacteria and residual test compounds. […] In both cases, the resulting lysates were serially diluted in DPBS and plated on tryptic soy agar plates. Plates were incubated at 37 °C for 24 h, after which colonies were enumerated. Bacterial burden was expressed as the CFU per well.

For a further assay, the target named is T3, LexAPa S125A (Pseudomonas aeruginosa, UniProt P37452, S125A).
T3 construct: Concerning full-length LexAPa ^S125A, a biphasic melting curve was obtained for the pure protein; made in house; host or cells: E. coli BL21(DE3)
Briefly: Isothermal titration calorimetry on LexAPa S125A. The format is binding, P. aeruginosa. The procedure:
To investigate deeper the binding of A12 to the two members of the P. aeruginosa SOS complex, ITC was performed on RecAPa and LexAPa ^S125A (Figure D,E). The integrated binding isotherms of both proteins were best fitted by a “one set of sites” model.
64 μM RecAPa and 58.5 μM LexAPa ^S125A were titrated with the selected compound (2.5 mM solution) using a Microcal PEAQ-ITC instrument (Malvern Panalytical) at 25 °C with a stirring rate of 750 rpm. Proteins and the ligand were dissolved in ITC Buffer (20 mM Tris–HCl, 150 mM NaCl, 5% v/v DMSO, pH 7.5). An initial 0.4 μL injection (excluded from data analysis) was followed by 24 injections of 1.5 μL with a spacing of 150 s between each addition. Blank experiments were performed by injecting the titrant compound in a protein-devoid ITC Buffer. Blank curves were subtracted from all of the experiments. Data were analyzed by using the MicroCal PEAQ-ITC Evaluation software (Malvern Panalytical). Integrated heat signals were fitted by a “one set of sites” binding model to obtain enthalpy changes (ΔH), dissociation constants (K D), and stoichiometry of binding.

In a further assay the test system is P. aeruginosa PAO1. As to the kind of experiment: Antimicrobial susceptibility testing (MIC). As to conditions: A12 (32 μg/mL) (−). The format is cell-based, P. aeruginosa PAO1 (ATCC 15692). The procedure: The MIC of compound A12 and antibiotics was determined by using the Clinical Laboratory Standard Institute (CLSI) recommendations with minor modifications. […] Microplates were incubated in a humidified incubator for 18 h at 37 °C, and the bacterial growth was quantified by OD600. According to CLSI, MICs are defined as the lowest concentrations of antimicrobial agents that prevent visible growth.

The subject of assay [3] is P. aeruginosa PAO1 on A549 lung epithelial cells. As to the kind of experiment: P. aeruginosa PAO1 colonization of A549 lung epithelial cells. The format is cell-based.
Where [4] appears, read: combination of ciprofloxacin 0.5 μg/mL and A12 100 μg/mL.

T3 sequence (P37452 2-204 S125A): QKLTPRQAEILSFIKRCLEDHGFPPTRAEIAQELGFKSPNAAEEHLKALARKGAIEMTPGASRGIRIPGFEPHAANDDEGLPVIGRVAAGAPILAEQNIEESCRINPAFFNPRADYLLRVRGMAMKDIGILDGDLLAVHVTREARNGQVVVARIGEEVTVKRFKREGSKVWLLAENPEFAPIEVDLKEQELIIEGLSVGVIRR
T2 sequence (P37452 2-204 S125A): as above
T1 sequence (P08280 2-346): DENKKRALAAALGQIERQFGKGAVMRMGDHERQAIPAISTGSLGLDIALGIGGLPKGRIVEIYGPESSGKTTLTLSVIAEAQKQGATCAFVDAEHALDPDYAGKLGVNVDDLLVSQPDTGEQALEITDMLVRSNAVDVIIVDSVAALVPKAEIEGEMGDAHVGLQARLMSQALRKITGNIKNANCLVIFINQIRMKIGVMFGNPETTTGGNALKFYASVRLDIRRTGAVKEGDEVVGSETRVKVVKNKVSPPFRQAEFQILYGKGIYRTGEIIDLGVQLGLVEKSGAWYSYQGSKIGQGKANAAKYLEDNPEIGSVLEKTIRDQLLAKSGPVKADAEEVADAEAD

One may read the ΔTm as the change in melting temperature against a reference sample. As usually defined, the Kd is a measure of binding affinity in units of concentration. The low end stands for higher affinity, the high end for lower affinity. Usually MIC stands for the least concentration at which growth counts as inhibited. Low values mean inhibition by little substance, high ones a need for much substance. Take `O=C(O)CCNc1ccccc1S` [A12, 3-(2-sulfanylanilino)propanoic acid]: the ΔTm at 1000 µM on RecAPa was determined as 10 °C. The “LexAPa SOS box DNA-binding activity in the presence of A12” value in assay [1] is on record as “retained full SOS box DNA-binding activity”. Besides, the “Intracellular (internalized) burden of PAO1 in THP-1-derived macrophages” value in assay [2] (A12 100 μg/mL alone) was “reduced the internalized bacterial growth”; in assay [2] (setting [4]), “synergized with ciprofloxacin”. Besides, the “Total (adherent + intracellular) burden of PAO1 on THP-1-derived macrophages” value in assay [2] (single agent: ciprofloxacin 0.5 μg/mL or A12 100 μg/mL, 3 h infection) is “diminished”. On LexAPa S125A, this molecule gave a Kd of 7.4 ± 0.5 µM. Further, the “MIC on P. aeruginosa PAO1” value in the assay on P. aeruginosa PAO1 was “no antimicrobial activity”. Further, the minimal inhibitory concentration (MIC) with P. aeruginosa PAO1 (Pseudomonas aeruginosa, PAO1) was more than 32 µg/mL. Besides, the “Intracellular (internalized) burden of PAO1 in A549 cells” value is “reduced the internalized bacterial growth” in assay [3] (A12 100 μg/mL alone) and “synergized with ciprofloxacin” in assay [3] (setting [4]). Besides, the “Total (adherent + intracellular) burden of PAO1 on A549 lung cells” value in assay [3] (setting [4]) is “significantly reduced colonization”.
